From patent publication US20120283303A1, “USE OF N-AMINOIMIDAZOLE CYTOPROTECTIVE COMPOUNDS FOR TREATING CELL DEATH AND/OR GSK-3 MEDIATED DISEASES” (K.U.LEUVEN RESEARCH AND DEVELOPMENT, priority 2006, published 2012)
Values after ≈ are worked out from the molar mass of the structure shown.

Columns and labels:
[1] = target: T1, CDK2/cyclinA (Homo sapiens, UniProt P24941); assay: Radiometric kinase activity assay; assay type: biochemical; conditions: 5 μg/ml NR-818, 10 μM ATP
T1 construct: purchased Upstate Biotechnology
Protocol: (§1) GSK-3 were assayed for their ability to phosphorylate the appropriate peptide/protein substrate in the presence of 5 μg/ml NR-818 and 10 μM ATP. Using the direct radiometric approach, kinase activities were determined and expressed as % activity compared to the untreated control (Upstate Biotechnology, Lake Placid, N.Y.). Activities are given as the mean of duplicate determinations relative to control incubations in which the inhibitor was substituted with DMSO. In the following table 1 providing results for NR818, the following abbreviations are used: • CDK, cyclin-dependent kinase; • CK, casein kinase; • eEF-2K, eukaryotic elongation factor-2 kinase; • JNK, c-Jun N-terminal kinase; • MAPK, mitogen-activated protein kinase; • PKC, protein kinase C; and • PI 3-kinase, phosphatidylinositol 3-kinase.

[2] = target: T2, CDK2/cyclinE (Homo sapiens, UniProt P24941); assay: Radiometric kinase activity assay; assay type: biochemical; conditions: 5 μg/ml NR-818, 10 μM ATP
T2 construct: purchased Upstate Biotechnology
Protocol: as §1

[3] = target: T3, CDK5/p35 (Homo sapiens, UniProt Q00535); assay: Radiometric kinase activity assay; assay type: biochemical; conditions: 5 μg/ml NR-818, 10 μM ATP
T3 construct: purchased Upstate Biotechnology
Protocol: as §1

[4] = target: T4, CDK6/cyclinD3 (Homo sapiens, UniProt Q00534); assay: Radiometric kinase activity assay; assay type: biochemical; conditions: 5 μg/ml NR-818, 10 μM ATP
T4 construct: purchased Upstate Biotechnology
Protocol: as §1

[5] = test system: CK1; assay: Radiometric kinase activity assay; assay type: biochemical; conditions: 5 μg/ml NR-818, 10 μM ATP
Protocol: as §1

[6] = target: T5, CK2 (Homo sapiens, UniProt P68400); assay: Radiometric kinase activity assay; assay type: biochemical; conditions: 5 μg/ml NR-818, 10 μM ATP
T5 construct: purchased Upstate Biotechnology
Protocol: as §1

[7] = target: T6, MAPK1 (Homo sapiens, UniProt P27361); assay: Radiometric kinase activity assay; assay type: biochemical; conditions: 5 μg/ml NR-818, 10 μM ATP
T6 construct: purchased Upstate Biotechnology
Protocol: as §1

[8] = target: T7, PI 3-kinaseδ (Homo sapiens, UniProt O00329); assay: Radiometric kinase activity assay; assay type: biochemical; conditions: 5 μg/ml NR-818, 10 μM ATP
T7 construct: purchased Upstate Biotechnology, Lake Placid, N.Y
Protocol: as §1

[9] = target: T8, PKCζ (Homo sapiens, UniProt Q05513); assay: Radiometric kinase activity assay; assay type: biochemical; conditions: 5 μg/ml NR-818, 10 μM ATP
T8 construct: purchased Upstate Biotechnology
Protocol: as §1

[10] = test system: M17-TAU P301L cells; assay: TAU cytotoxicity (LDH leakage) in retinoic acid incubated M17-TAU P301L cells; assay type: cell-based, human; conditions: Homo sapiens, 168 h, reduction of LDH activity of retinoic acid incubated M17-TAU P301L cells, 7 days; read-out: IC50
Description: An TAU expression plasmid was constructed by sub-cloning the cDNA of human TAU-P301L (encoding for TAU with proline 301 substituted by a leucine residue) into mammalian expression vector pcDNA3.1 resulting in plasmid pcDNA3.1-TAU P301L. Plasmids pcDNA3.1 and pcDNA3.1-TAU P301L were transfected to human neuroblastoma cells ([…]; ATCC No. CRL-2267) and independent clonal lines with the plasmids stably integrated into the genome were selected. […] Expression of the TAU P301L genes in the cell lines was confirmed by Western analysis.
In degenerated or dead cells, lactate dehydrogenase (LDH) is leaked out of the cells into the extracellular environment due to a loss of plasma-membrane integrity. This principle was used to determine cytotoxicity by quantifying the level of leaked LDH into the growth medium.
The detailed method for determining TAU cytotoxicity was as follows: From appropriate precultures of M17-3.1 and M17-TAU(P301L) cells were seeded at 2500 cells/cm2 in Optimem Reduced Serum without phenol red (Gibco, Cat. 31985-047) supplemented with 1% fetal calf serum, 1 mM sodium pyruvate, 1× non-essential amino acids, 500 μg/ml G418 0.5× antibiotic/antimycotic. After 3 hours of incubation at 37° C./5% CO2 1 volume of Optimem Reduced Serum (same as described above; except without fetal calf serum) supplemented with 2.5 μM retinoic acid (RA) was added. The cells were further incubated for 7 days. Subsequently, LDH activity was determined using Promega Cytotox 96 Non-Radioactive cytotoxicity assay, (Cat. G1780) according the supplier's instructions.
The M17-TAU P301L cell line made it possible to assess the ability of the compounds of this invention to counteract TAU cytotoxicity. […] Potency of the relevant compounds was determined by testing them at different concentrations ranging from non-effective (thus at a relatively low concentration) to an effective concentration for their ability to reduce LDH activity of retinoic acid incubated M17-TAU P301L cells.

[11] = test system: motor neurons; assay: Basal survival of motor neurons in co-culture on glial feeder layer; assay type: cell-based, Wistar rats; conditions: FIG. 1A
Protocol: Cell cultures: Primary motor neuron cultures were prepared from Wistar rats as follows. Spinal cords were dissected from E14 embryos and collected in Hanks' Balanced Salt Solution (HBSS; Gibco Invitrogen, Grand Island, N.Y). Ventral cords were minced and digested for 15 minutes at 37° C. in 0.05% trypsin in HBSS. The solution was then replaced with medium A (L15 (Sigma, St.-Louis, Mo.) supplemented with glucose, progesterone, insulin, putrescine, conalbumin, sodium selenite, penicillin, streptomycin and 2% horse serum) containing 0.4% BSA and 20 μg/ml DNase and the tissue was dissociated by trituration. The resulting single cell suspension was layered on a 6.8% (weight/volume in L15) optiprep cushion (one spinal cord per tube) and centrifuged at 500 g for 15 minutes. […] To remove debris, both fractions were resuspended in medium A and centrifuged for 20 minutes at 75 g on a 4% BSA cushion. For co-cultures, 30,000 motor neurons of the F1 fraction were seeded on a glial feeder layer. Glial feeder layers were prepared by plating F2 cells in 35 mm dishes. After 4 weeks in vitro, cell division was halted by exposure to 10^−5 M cytosine arabinoside. […]
Exposure experiments: After 1 day in culture NAIM was added to the culture medium at different concentrations. […] In the experiment in which the effect of fresh medium was evaluated, the culture medium was replaced in total every day. […]

T7 sequence (O00329 whole entry): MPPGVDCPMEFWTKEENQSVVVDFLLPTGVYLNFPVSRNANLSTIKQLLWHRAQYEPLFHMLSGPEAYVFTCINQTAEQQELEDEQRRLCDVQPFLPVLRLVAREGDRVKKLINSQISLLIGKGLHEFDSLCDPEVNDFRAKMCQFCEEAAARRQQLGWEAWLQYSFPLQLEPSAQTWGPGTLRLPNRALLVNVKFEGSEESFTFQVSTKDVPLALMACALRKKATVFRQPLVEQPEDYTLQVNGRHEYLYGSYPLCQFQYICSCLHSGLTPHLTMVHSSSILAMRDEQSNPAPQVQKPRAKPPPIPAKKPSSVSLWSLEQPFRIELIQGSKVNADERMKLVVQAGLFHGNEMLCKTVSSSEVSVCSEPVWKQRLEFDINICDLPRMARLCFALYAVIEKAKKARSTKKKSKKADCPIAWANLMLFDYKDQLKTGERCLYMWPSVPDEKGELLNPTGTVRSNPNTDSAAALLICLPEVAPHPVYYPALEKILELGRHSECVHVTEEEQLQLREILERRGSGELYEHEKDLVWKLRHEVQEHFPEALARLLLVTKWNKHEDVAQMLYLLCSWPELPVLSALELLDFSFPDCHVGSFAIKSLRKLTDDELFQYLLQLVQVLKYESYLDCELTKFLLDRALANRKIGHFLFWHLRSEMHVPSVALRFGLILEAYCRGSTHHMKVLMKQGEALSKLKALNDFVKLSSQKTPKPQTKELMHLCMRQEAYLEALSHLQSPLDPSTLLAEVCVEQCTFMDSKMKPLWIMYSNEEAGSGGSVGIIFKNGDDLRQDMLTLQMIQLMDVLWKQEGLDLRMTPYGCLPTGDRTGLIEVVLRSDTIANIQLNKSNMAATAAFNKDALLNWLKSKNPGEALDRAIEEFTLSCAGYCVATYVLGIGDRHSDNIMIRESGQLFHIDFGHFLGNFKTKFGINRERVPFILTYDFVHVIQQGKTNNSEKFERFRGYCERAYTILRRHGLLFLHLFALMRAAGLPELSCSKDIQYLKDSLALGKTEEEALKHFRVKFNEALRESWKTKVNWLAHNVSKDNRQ
T7 sequence (P27986 whole entry partner): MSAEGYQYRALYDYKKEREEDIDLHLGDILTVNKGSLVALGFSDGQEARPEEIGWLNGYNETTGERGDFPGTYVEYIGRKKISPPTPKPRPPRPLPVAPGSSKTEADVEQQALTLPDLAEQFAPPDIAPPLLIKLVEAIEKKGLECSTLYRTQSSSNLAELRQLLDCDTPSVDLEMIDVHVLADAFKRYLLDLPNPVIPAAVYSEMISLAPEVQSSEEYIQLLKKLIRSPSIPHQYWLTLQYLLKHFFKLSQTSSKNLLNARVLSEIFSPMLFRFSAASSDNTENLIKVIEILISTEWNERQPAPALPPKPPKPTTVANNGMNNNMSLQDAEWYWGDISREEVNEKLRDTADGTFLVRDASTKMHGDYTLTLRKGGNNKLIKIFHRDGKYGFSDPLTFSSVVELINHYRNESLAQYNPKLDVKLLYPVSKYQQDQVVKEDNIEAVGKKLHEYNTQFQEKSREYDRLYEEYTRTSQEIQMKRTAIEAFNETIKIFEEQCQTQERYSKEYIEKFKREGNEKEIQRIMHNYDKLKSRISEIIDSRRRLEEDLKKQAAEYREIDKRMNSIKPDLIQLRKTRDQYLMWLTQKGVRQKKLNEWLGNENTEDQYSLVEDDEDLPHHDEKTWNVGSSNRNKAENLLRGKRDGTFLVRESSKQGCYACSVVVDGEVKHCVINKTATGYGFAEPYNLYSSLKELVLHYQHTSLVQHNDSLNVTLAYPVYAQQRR
T4 sequence (Q00534 whole entry): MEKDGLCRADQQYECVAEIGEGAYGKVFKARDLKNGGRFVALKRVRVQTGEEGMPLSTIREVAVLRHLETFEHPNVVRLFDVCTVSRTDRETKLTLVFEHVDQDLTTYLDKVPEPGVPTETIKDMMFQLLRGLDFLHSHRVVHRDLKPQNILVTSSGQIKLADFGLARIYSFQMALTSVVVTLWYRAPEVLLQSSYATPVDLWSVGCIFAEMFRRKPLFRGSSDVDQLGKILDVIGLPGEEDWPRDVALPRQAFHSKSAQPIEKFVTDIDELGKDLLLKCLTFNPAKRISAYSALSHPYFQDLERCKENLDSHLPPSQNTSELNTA
T4 sequence (P30281 whole entry partner): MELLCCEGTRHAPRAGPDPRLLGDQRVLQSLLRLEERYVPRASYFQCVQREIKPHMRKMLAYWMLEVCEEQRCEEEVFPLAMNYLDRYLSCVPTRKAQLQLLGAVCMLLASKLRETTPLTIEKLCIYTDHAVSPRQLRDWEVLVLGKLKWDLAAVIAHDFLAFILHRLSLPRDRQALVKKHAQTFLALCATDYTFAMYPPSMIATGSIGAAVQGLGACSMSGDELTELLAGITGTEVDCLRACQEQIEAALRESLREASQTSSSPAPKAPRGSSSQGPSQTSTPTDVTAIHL
T5 sequence (P68400 whole entry): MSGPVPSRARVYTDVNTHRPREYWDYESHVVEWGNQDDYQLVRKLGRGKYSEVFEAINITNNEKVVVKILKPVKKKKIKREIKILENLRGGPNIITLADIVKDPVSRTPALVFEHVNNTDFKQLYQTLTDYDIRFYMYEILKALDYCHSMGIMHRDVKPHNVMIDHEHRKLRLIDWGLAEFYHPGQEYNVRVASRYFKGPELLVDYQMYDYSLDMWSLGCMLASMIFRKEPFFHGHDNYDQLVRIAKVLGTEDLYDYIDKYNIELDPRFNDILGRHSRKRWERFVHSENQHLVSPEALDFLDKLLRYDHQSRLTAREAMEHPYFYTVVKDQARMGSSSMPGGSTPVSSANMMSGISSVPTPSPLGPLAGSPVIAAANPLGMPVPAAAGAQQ
T5 sequence (P67870 whole entry partner): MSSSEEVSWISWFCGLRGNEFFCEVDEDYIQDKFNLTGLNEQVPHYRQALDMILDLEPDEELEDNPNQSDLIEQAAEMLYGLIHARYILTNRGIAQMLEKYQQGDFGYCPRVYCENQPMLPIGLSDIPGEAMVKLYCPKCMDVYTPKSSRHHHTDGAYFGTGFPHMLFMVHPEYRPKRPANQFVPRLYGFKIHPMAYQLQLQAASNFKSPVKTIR
T8 sequence (Q05513 whole entry): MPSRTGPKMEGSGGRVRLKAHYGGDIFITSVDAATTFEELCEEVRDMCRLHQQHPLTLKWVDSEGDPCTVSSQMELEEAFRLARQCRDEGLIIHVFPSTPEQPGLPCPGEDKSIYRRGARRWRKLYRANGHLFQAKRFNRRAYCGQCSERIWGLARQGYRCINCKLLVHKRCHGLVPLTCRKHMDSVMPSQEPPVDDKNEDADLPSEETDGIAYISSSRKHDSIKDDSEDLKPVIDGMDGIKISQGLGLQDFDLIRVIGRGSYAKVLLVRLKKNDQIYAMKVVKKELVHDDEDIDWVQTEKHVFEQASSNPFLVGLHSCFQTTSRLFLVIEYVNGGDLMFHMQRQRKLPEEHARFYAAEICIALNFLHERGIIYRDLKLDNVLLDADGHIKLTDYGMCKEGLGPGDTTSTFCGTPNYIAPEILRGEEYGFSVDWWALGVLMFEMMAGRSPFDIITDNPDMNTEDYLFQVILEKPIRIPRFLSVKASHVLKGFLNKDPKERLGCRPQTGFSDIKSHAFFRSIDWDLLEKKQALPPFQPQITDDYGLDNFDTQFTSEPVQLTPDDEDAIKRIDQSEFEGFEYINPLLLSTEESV
T3 sequence (Q00535 whole entry): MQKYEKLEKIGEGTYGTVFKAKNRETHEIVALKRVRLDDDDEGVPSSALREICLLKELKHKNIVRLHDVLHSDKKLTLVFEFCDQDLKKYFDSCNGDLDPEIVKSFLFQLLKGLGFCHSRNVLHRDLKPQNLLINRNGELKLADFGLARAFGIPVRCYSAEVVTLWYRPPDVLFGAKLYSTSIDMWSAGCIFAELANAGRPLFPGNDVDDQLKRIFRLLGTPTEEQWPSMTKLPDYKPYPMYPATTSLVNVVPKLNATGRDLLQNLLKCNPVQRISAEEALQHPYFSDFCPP
T3 sequence (Q15078 2-307 partner limits assumed): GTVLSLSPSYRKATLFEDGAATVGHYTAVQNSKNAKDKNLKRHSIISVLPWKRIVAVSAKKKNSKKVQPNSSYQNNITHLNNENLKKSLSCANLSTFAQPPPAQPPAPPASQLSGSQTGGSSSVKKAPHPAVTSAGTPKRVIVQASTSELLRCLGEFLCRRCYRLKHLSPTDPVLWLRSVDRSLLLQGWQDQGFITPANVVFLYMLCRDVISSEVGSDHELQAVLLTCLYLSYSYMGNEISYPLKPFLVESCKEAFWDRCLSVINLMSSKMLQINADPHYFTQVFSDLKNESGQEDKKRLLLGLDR
T6 sequence (P27361 whole entry): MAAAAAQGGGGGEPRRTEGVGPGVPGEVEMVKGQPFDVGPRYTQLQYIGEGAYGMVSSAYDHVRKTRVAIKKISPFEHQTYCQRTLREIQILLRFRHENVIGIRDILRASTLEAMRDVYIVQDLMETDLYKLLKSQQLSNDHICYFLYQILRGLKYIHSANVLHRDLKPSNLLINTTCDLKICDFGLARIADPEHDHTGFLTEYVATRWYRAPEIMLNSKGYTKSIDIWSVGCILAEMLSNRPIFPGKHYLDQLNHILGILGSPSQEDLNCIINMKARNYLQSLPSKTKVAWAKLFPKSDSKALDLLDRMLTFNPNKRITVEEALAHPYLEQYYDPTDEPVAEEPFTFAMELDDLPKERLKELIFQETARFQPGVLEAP

Question: What does the source list for `Cc1nc(S)n(Nc2cccc3ccccc23)c1-c1ccccc1` [HER/NR818, 4-Methyl-1-(naphthalen-1-ylamino)-5-phenyl-1,3-dihydro-imidazole-2-thione]?
Answer: Activity (% of control) [1]: 87 % of control; Activity (% of control) [2]: 101 % of control; Activity (% of control) [3]: 92 % of control; Activity (% of control) [4]: 112 % of control; Activity (% of control) [5]: 106 % of control; Activity (% of control) [6]: 99 % of control; Activity (% of control) [7]: 104 % of control; Activity (% of control) [8]: 89 % of control; Activity (% of control) [9]: 98 % of control; IC50 [10]: 0.013 µg/mL (≈ 0.0392 µM); basal survival of motor neurons [11]: significant increase in the basal survival
